{
  "source": "patent US5821353A",
  "about": "“DNA encoding 1,3 beta-D glucan synthase subunits” (Merck & Co., Inc., priority 1996, dated 1998)",
  "key": {"[1]": {"test_system": "S. cerevisiae MY2144 (fks 1-3)", "experiment": "MIC, growth inhibition", "format": "cell-based, Saccharomyces cerevisiae", "conditions": "Saccharomyces cerevisiae, 24 h", "method": "(§1) Liquid broth microdilution assay\n(§2) To quantitate the sensitivity of a particular strain of S. cerevisiae to a compound such as FK506, L-733,560, or nikkomycin Z, the following procedure was followed:\n(§3) Dissolve drug of interest at 4× the desired initial concentration. For L-733,560, a 64 mcg/ml solution in sterile SD is prepared. Aliquot 75 mcL of the drug suspension into column 3. Using a multichannel pipettor, transfer 75 mcL from column 3 into column 4, pipet up and down three times to mix, and then transfer 75 mcL from column 4 into column 5. Repeat the serial dilution until column 12 is reached; after mixing, discard 75 mcL to waste.\n(§4) Inoculate each strain in a given row by adding 75 mcL of the inoculum into columns 2 to 12. […] Column 2 serves as the no-drug or 100% growth control. The plate is then incubated overnight at 30° C. without shaking.\n(§5) After approximately 24 hours of incubation, gently agitate the plate to resuspend the cells and read the absorbance at 600 nm wavelength. The % control growth for any given well can be calculated by dividing the absorbance value for that well by the value from column 2 in the same row. If this is done for each column, the data can be plotted as \"Percent control growth\" vs. \"Drug concentration\". The resulting dose-response curve can be used to compare the drug sensitivities of various strains.\n(§6) The data in the following table are the minimum concentration of the various drugs required to inhibit the growth of each the mutants and their parent X2180-1A."}, "[2]": {"test_system": "S. cerevisiae MY2145", "experiment": "MIC, growth inhibition", "format": "cell-based, Saccharomyces cerevisiae", "conditions": "Saccharomyces cerevisiae, MY2145, 24 h; read-out: MIC", "method": "as §1, §2, §3, §4, §5, §6"}, "[3]": {"test_system": "S. cerevisiae X2180-1A", "experiment": "MIC, growth inhibition", "format": "cell-based, Saccharomyces cerevisiae", "conditions": "Saccharomyces cerevisiae, X21801A, 24 h, minimum concentration required to inhibit growth, read-out: MIC", "method": "as §1, §2, §3, §4, §5, §6"}, "[4]": {"test_system": "S. cerevisiae MS14 mutant", "experiment": "disc diffusion drug resistance/sensitivity test", "format": "cell-based, Saccharomyces cerevisiae", "method": "Cells of the yeast strains MY2144 and MY2145 carrying the respective MS10 and MS14 mutations were grown overnight in YPAD and SC media. From the overnight cultures, cells were diluted 1:10 in the same media and allowed to further grow for 4-6 hrs. The drug resistance/sensitivity tests were conducted by the disc diffusion assay on plates containing 20 ml of solid YPAD or SC media and 3×10^6 cells. The cells were added to premelted media that was cooled to 50° C. before pouring onto plates. Sterile filter discs containing different drugs were placed on the surface of the plates followed by incubation at 28° C. for 1-2 days. Sizes of the zones of growth inhibition were measured as an indication of relative drug resistance/sensitivity. The MS14 mutant is supersensitive to the chitin synthesis inhibitor nikkomycin Z and resistant to the echinocandin L-733-560."}, "[5]": {"test_system": "chitin synthase from MY2144 (fks 1-3)", "experiment": "chitin synthase assay, membrane preparation", "format": "biochemical, Saccharomyces cerevisiae", "conditions": "membranes of MY2144 (fks 1-3)", "method": "(§7) 125 mcg of the above extracts were trypsin activated and mixed with an equal volume (50 mcL) chitin synthase reaction cocktail, which included 0.5M Tris, pH 7.5, 40 mM MgCl, 320 microM GlcNAc, ^14 C-UDP-GlcNAc substrate mix, and 0.8% digitonin. After 30 minutes of incubation at 30° C., the incorporated ^14 C-[…] was precipitated with 10% trichloroacetic acid, collected onto Whatman glass microfiber GF/A disks and counted.\n(§8) Crude enzyme preparations associated with cell membranes were tested for glucan and chitin synthesis activities. The sensitivity of the mutant 1,3-beta-D glucan synthase to L-733,560 and papulacandin was tested along with the sensitivity of the chitin synthases to nikkomycin Z.\n(§9) The chitin synthase is not affected in its sensitivity to nikkomycin Z. The data in the following table show the IC50 s for the glucan synthase inhibitors (L-733,560 and papulacandin) and the chitin synthase inhibitor (nikkomycin Z) in 1,3-beta-D glucan synthase and chitin synthase assays, respectively. Equal amounts of membrane proteins were used to prime each reaction."}, "[6]": {"test_system": "chitin synthase from MY2145 (fks 1-4)", "experiment": "chitin synthase assay, membrane preparation", "format": "biochemical, Saccharomyces cerevisiae", "conditions": "membranes of MY2145 (fks 1-4)", "method": "as §7, §8, §9"}, "[7]": {"test_system": "chitin synthase from X2180-1A", "experiment": "chitin synthase assay, membrane preparation", "format": "biochemical, Saccharomyces cerevisiae", "conditions": "membranes of X2180-1A", "method": "as §7, §8, §9"}},
  "data": [
    {"smiles": "C[C@@H]([C@H](N)C(=O)N[C@H](C(=O)O)[C@H]1O[C@@H](n2ccc(=O)[nH]c2=O)[C@H](O)[C@@H]1O)[C@H](O)c1ccc(O)cn1", "note": "[Nikkomycin Z, nikkomycin Z]", "values": [
      {"measurement": "MIC", "setting": "[1]", "value": "> 100", "unit": "µg/mL"},
      {"measurement": "MIC", "setting": "[2]", "value": 0.2, "unit": "µg/mL"},
      {"measurement": "MIC", "setting": "[3]", "value": "> 100", "unit": "µg/mL"},
      {"measurement": "drug resistance/sensitivity phenotype", "setting": "[4]", "value": "supersensitive"},
      {"measurement": "IC50", "setting": "[5]", "value": 0.60, "unit": "µg/mL"},
      {"measurement": "IC50", "setting": "[6]", "value": 0.64, "unit": "µg/mL"},
      {"measurement": "IC50", "setting": "[7]", "value": 0.74, "unit": "µg/mL"}
    ]}
  ]
}
